From patent publication US20130310379A1, “MODULATORS OF METHYL MODIFYING ENZYMES, COMPOSITIONS AND USES THEREOF” (CONSTELLATION PHARMACEUTICALS, priority 2010, published 2013) come the findings set out here.

The term pIC50 denotes −log10 of the IC50, conventionally taken in molar units.

pIC50: −log10 of the molar value.

Sequence of EZH2 (Q15910 whole entry): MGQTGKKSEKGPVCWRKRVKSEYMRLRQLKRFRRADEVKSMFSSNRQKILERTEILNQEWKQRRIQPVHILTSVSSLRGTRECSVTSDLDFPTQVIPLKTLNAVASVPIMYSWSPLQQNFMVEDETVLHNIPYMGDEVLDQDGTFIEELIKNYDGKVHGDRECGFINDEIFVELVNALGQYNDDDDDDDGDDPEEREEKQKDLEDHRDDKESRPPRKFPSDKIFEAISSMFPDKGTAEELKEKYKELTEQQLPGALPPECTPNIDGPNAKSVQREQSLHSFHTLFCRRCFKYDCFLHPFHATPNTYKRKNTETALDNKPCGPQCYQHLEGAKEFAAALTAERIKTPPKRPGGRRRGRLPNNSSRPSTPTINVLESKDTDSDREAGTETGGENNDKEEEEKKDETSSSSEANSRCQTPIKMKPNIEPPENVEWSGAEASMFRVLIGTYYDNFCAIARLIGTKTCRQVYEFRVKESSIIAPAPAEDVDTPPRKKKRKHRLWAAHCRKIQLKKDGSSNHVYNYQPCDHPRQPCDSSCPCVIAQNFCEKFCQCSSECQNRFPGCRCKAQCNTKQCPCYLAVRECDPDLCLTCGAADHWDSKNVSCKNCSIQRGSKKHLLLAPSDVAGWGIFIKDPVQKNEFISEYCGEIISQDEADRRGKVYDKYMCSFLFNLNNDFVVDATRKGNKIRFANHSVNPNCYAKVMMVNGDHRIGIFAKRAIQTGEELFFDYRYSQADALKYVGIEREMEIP
Sequence of EZH2 (O75530 whole entry partner): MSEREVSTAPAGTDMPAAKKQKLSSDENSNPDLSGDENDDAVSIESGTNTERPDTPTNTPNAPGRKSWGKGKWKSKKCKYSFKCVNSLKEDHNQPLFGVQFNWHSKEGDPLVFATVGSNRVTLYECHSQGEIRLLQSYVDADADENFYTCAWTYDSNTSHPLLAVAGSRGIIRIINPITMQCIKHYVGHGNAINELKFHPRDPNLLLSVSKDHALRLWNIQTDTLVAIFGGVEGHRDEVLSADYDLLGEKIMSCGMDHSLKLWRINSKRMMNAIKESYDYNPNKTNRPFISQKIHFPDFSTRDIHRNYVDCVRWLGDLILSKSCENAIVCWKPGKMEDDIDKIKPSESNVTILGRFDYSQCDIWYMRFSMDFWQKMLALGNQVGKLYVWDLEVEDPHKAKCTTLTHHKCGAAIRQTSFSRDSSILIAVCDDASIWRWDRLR
Sequence of EZH2 (Q15022 whole entry partner): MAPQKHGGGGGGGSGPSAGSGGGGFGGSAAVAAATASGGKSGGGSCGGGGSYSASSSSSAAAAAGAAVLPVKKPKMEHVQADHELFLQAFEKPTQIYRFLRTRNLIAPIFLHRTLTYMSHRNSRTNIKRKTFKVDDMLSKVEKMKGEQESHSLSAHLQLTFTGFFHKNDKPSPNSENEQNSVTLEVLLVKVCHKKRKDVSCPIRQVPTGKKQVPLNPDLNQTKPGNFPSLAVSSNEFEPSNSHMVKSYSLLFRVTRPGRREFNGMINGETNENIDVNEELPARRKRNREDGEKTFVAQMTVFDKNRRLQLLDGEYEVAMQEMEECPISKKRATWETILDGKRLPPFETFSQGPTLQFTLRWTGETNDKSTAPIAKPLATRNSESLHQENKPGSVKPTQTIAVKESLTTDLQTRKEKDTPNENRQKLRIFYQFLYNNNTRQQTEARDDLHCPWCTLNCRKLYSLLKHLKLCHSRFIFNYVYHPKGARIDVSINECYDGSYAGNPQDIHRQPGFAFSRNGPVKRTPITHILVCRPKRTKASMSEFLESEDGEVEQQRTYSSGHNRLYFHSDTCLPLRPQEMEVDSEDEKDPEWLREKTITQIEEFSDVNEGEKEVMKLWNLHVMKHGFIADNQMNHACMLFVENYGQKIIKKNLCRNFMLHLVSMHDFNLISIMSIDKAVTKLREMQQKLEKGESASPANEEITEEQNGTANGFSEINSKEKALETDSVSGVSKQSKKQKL

The target in the assay is EZH2 (Homo sapiens, UniProt Q15910). The experiment in a line: EZH2 assay: rPRC2 with biotinylated oligonucleosome substrates and 3H SAM, FlashPlate scintillation counting, IC50. The class given is biochemical. The conditions noted are these: rPRC2, biotinylated oligonucleosome substrates, 3H SAM; read-out: EZH2 IC50. The gist of the method:
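rPRC2 (2 nM EZH2) pre-incubated 20 min with compound (80 to 0.16 uM, ten 2-fold steps), then 60 min reaction with 0.2 uM 3H SAM, 0.2 uM biotinylated oligonucleosomes, 3.6 uM H3K27me3 peptide in Tris pH 8.5. SAH/EDTA quench; 4-parameter IC50 fit.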
Take `Cc1cc(Oc2ccccc2C#N)ccc1C(=O)NC1CC(C)(C)NC(C)(C)C1` [Compound I-243]: the pIC50 is 4.10 to 4.70.

With `CC1(C)CC(NC(=O)c2ccc(Oc3c(Cl)cccc3C#N)cc2)CC(C)(C)N1` [Compound I-244], the pIC50 was 4.10 to 4.70.

`CC1(C)CC(NC(=O)c2ccc(Oc3ccccc3C#N)cc2F)CC(C)(C)N1` [Compound I-245]: the pIC50 is 4.70 to 5.30.

As to `CN(C)C(=O)c1ccccc1Oc1ccc(C(=O)NC2CC(C)(C)NC(C)(C)C2)cc1Cl` [Compound I-246], the pIC50 is 4.10 to 4.70.

Regarding `CN(C)Cc1cccc(Oc2ccc(C(=O)NC3CC(C)(C)NC(C)(C)C3)cc2)c1` [Compound I-247], the pIC50 was 4.10 to 4.70.

As to `COCc1ccccc1Oc1ccc(C(=O)NC2CC(C)(C)NC(C)(C)C2)cc1` [Compound I-248], the pIC50 was 4.10 to 4.70.

Take `CC1(C)CC(NC(=O)c2ccc(Oc3ncccc3C#N)c(Cl)c2)CC(C)(C)N1` [Compound I-249]: the pIC50 is 4.70 to 5.30.

For `CC1(C)CC(NC(=O)c2ccc(Oc3ccccc3CN3CCCC3)cc2)CC(C)(C)N1` [Compound I-250], the pIC50 was 4.10 to 4.70.

Turning to `CC1(C)CC(NC(=O)c2ccc(Oc3cccc(-c4cnc(N)nc4)c3)cc2)CC(C)(C)N1` [Compound I-251], the pIC50 was 4.10 to 4.70.

In the case of `CC1(C)CC(NC(=O)c2ccc(Oc3ccccc3-c3ccsc3)c(Cl)c2)CC(C)(C)N1` [Compound I-252], the pIC50 was greater than 5.30.

Take `CC1(C)CC(NC(=O)c2ccc(Oc3ccccc3-c3ncco3)c(Cl)c2)CC(C)(C)N1` [Compound I-253]: the pIC50 was greater than 5.30.

With `CC1(C)CC(NC(=O)c2ccc(Oc3cc(Br)ccc3C#N)c(Cl)c2)CC(C)(C)N1` [Compound I-255], the pIC50 was greater than 5.30.

In the case of `Cc1cc(C(=O)NC2CC(C)(C)NC(C)(C)C2)ccc1Oc1cccc(-c2cccnc2)c1C#N` [Compound I-261], the pIC50 is greater than 5.30.

As for `Cc1cc(C(=O)NC2CC(C)(C)NC(C)(C)C2)ccc1Oc1cccc(C2CC2)c1C#N` [Compound I-263], the pIC50 was greater than 5.30.

Turning to `CC1(C)CC(NC(=O)c2ccc(Oc3ccccc3C#N)c(C#N)c2)CC(C)(C)N1` [Compound I-264], the pIC50 is greater than 5.30.

As for `CCc1cc(C(=O)NC2CC(C)(C)NC(C)(C)C2)ccc1Oc1ccccc1C#N` [Compound I-265], the pIC50 is greater than 5.30.

As for `Cc1cc(C(=O)NC2CC(C)(C)NC(C)(C)C2)ccc1Oc1cccc(C(C)C)c1C#N` [Compound I-267], the pIC50 is greater than 5.30.

On to `CC1(C)CC(NC(=O)c2ccc(Oc3ccccc3)c(O)c2)CC(C)(C)N1` [Compound I-268], for which the pIC50 was 4.10 to 4.70.

As to `CC1(C)CC(NC(=O)c2ccc(Oc3ccccc3)c(OCc3ccccc3)c2)CC(C)(C)N1` [Compound I-269], the pIC50 is 4.10 to 4.70.

For the compound `CC1(C)CC(NC(=O)c2ccc(Oc3ccccc3C#N)c3ccccc23)CC(C)(C)N1` [Compound I-270], the pIC50 is greater than 5.30.

For the compound `CC1(C)CC(NC(=O)c2ccc(Oc3ccccc3-c3cccnc3N)c(Cl)c2)CC(C)(C)N1` [Compound I-271], the pIC50 was 4.70 to 5.30.

Regarding `CC1(C)CC(NC(=O)c2ccc(Oc3ccccc3C(=O)Nc3ccccc3)c(Cl)c2)CC(C)(C)N1` [Compound I-272], the pIC50 is 4.10 to 4.70.

On to `CC1(C)CC(NC(=O)c2ccc(Oc3ccccc3CN)cc2)CC(C)(C)N1` [Compound I-273], for which the pIC50 was 4.10 to 4.70.

With `CNCc1ccccc1Oc1ccc(C(=O)NC2CC(C)(C)NC(C)(C)C2)cc1` [Compound I-274], the pIC50 is less than 4.10.

For the compound `CN(C)Cc1ccccc1Oc1ccc(C(=O)NC2CC(C)(C)NC(C)(C)C2)cc1` [Compound I-275], the pIC50 is less than 4.10.

On to `CCN1C(C)(C)CC(NC(=O)c2ccc(Oc3ccccc3C#N)c(Cl)c2)CC1(C)C` [Compound I-276], for which the pIC50 was 4.70 to 5.30.

With `CC1(C)CC(NC(=O)c2ccc(Oc3ccccc3-c3cccs3)c(Cl)c2)CC(C)(C)N1` [Compound I-277], the pIC50 is greater than 5.30.

For the compound `CC1(C)CC(NC(=O)c2ccc(Oc3ccccc3-c3nccs3)c(Cl)c2)CC(C)(C)N1` [Compound I-278], the pIC50 is greater than 5.30.

For the compound `CC1(C)CC(NC(=O)c2ccc(Oc3ccccc3-c3cncnc3)c(Cl)c2)CC(C)(C)N1` [Compound I-279], the pIC50 was greater than 5.30.

`COc1ccncc1-c1ccccc1Oc1ccc(C(=O)NC2CC(C)(C)NC(C)(C)C2)cc1Cl` [Compound I-280]: the pIC50 is less than 4.10.

Consider `CCOC(=O)N1CCC(NC(=O)c2ccc(Oc3ccccc3C#N)c(Cl)c2)CC1` [Compound I-281], for which the pIC50 was less than 4.10.

`CC1(C)CC(NC(=O)c2ccc(Oc3ccccc3-c3nn[nH]n3)c(Br)c2)CC(C)(C)N1` [Compound I-282]: the pIC50 was less than 4.10.

Turning to `CC1(C)CC(NC(=O)c2ccc(Oc3cccc(CN4CCCCC4)c3C#N)cc2)CC(C)(C)N1` [Compound I-283], the pIC50 is 4.70 to 5.30.

Regarding `CC1(C)CC(NC(=O)c2ccc(Oc3ccccc3C(N)=O)c(Cl)c2)CC(C)(C)N1` [Compound I-284], the pIC50 is 4.70 to 5.30.

Turning to `CNC(=O)c1ccccc1Oc1ccc(C(=O)NC2CC(C)(C)NC(C)(C)C2)cc1Cl` [Compound I-285], the negative logarithm of the IC50 (pIC50) is 4.10 to 4.70.

Turning to `CC1(C)CC(NC(=O)c2ccc(Oc3ccccc3C(=O)NCc3ccccc3)c(Cl)c2)CC(C)(C)N1` [Compound I-286], the negative logarithm of the IC50 (pIC50) is 4.70 to 5.30.

Turning to `CC(O)c1ccccc1Oc1ccc(C(=O)NC2CC(C)(C)NC(C)(C)C2)cc1` (stereo not drawn) [Compound I-287], the pIC50 is 4.10 to 4.70.

Regarding `COc1cncc(-c2ccccc2Oc2ccc(C(=O)NC3CC(C)(C)NC(C)(C)C3)cc2Cl)c1` [Compound I-288], the pIC50 is greater than 5.30.

Take `CN1C(C)(C)CC(NC(=O)c2ccc(Oc3ccccc3C#N)c(Cl)c2)CC1(C)C` [Compound I-289]: the pIC50 is greater than 5.30.

On to `CC(=O)N1C(C)(C)CC(NC(=O)c2ccc(Oc3ccccc3C#N)c(Cl)c2)CC1(C)C` [Compound I-290], for which the pIC50 is less than 4.10.

As for `CC1(C)CC(NC(=O)c2ccc(Oc3cccc4cnccc34)c(Br)c2)CC(C)(C)N1` [Compound I-291], the negative-log IC50 (pIC50) is greater than 5.30.

For the compound `CC1(C)CC(NC(=O)c2ccc(CCOc3ccccc3)cc2)CC(C)(C)N1` [Compound I-292], the pIC50 was less than 4.10.

Consider `Cc1ncccc1-c1ccccc1Oc1ccc(C(=O)NC2CC(C)(C)NC(C)(C)C2)cc1Cl` [Compound I-293], for which the pIC50 was 4.70 to 5.30.

For `COC(=O)c1ccc(-c2ccccc2Oc2ccc(C(=O)NC3CC(C)(C)NC(C)(C)C3)cc2Cl)cn1` [Compound I-294], the pIC50 was greater than 5.30.

Take `Cc1ccc(-c2ccccc2Oc2ccc(C(=O)NC3CC(C)(C)NC(C)(C)C3)cc2Cl)cn1` [Compound I-295]: the pIC50 was greater than 5.30.

For `Cc1cncc(-c2ccccc2Oc2ccc(C(=O)NC3CC(C)(C)NC(C)(C)C3)cc2Cl)c1` [Compound I-296], the pIC50 was greater than 5.30.

Consider `Cc1ccncc1-c1ccccc1Oc1ccc(C(=O)NC2CC(C)(C)NC(C)(C)C2)cc1Cl` [Compound I-297], for which the pIC50 is 4.70 to 5.30.

In the case of `CC1CCCCC1Oc1ccc(C(=O)NC2CC(C)(C)NC(C)(C)C2)cc1` (stereo not drawn) [Compound I-298], the pIC50 was less than 4.10.

With `CC1(C)CC(NC(=O)c2ccc(OC3CCCC3)cc2)CC(C)(C)N1` [Compound I-299], the pIC50 was less than 4.10.

For `CC1(C)CC(NC(=O)c2ccc(Sc3ccccc3)c(Cl)c2)CC(C)(C)N1` [Compound I-300], the pIC50 is 4.10 to 4.70.

In the case of `Cc1ccccc1Sc1ccc(C(=O)NC2CC(C)(C)NC(C)(C)C2)cc1Cl` [Compound I-302], the pIC50 was 4.10 to 4.70.

On to `CC1(C)CC(NC(=O)c2ccc(-n3cnc4ccccc43)c(Cl)c2)CC(C)(C)N1` [Compound I-303], for which the pIC50 was less than 4.10.

Take `CC1(C)CC(NC(=O)c2ccc(Oc3ccccc3CC#N)cc2)CC(C)(C)N1` [Compound I-305]: the pIC50 is 4.10 to 4.70.

Regarding `CC1(C)CC(NCc2ccc(Oc3ccccc3C#N)cc2)CC(C)(C)N1` [Compound I-306], the pIC50 is less than 4.10.

For `Cc1cccc(Oc2ccc(C(=O)NC3CC(C)(C)NC(C)(C)C3)cc2Cl)c1C#N` [Compound I-309], the pIC50 was greater than 5.30.

For the compound `CCc1cccc(Oc2ccc(C(=O)NC3CC(C)(C)NC(C)(C)C3)cc2Cl)c1C#N` [Compound I-310], the pIC50 was greater than 5.30.

Regarding `CC1(C)CC(NC(=O)c2ccc(Oc3cccc(C(F)(F)F)c3C#N)c(Cl)c2)CC(C)(C)N1` [Compound I-311], the pIC50 was greater than 5.30.

On to `CC1(C)CC(NC(=O)c2ccc(Oc3ccccc3-c3nn[nH]n3)c(Cl)c2)CC(C)(C)N1` [Compound I-313], for which the pIC50 was less than 4.10.

Take `CC1(C)CC(NC(=O)c2ccc(Oc3cccc4c(Cl)nccc34)cc2)CC(C)(C)N1` [Compound I-314]: the pIC50 was 4.70 to 5.30.

With `CC1(C)CC(NC(=O)c2ccc(Oc3cccc4cnc(Cl)cc34)cc2)CC(C)(C)N1` [Compound I-315], the pIC50 is greater than 5.30.

On to `CC1(C)CC(NC(=O)c2ccc(Oc3cccc4c(N)nccc34)cc2)CC(C)(C)N1` [Compound I-316], for which the pIC50 is 4.10 to 4.70.

As for `CC1(C)CC(NC(=O)c2ccc(Oc3cccc4c(=O)[nH]ccc34)cc2)CC(C)(C)N1` [Compound I-317], the pIC50 is less than 4.10.

`CC1(C)CC(NC(=O)c2ccc(Oc3ccncc3)c(Br)c2)CC(C)(C)N1` [Compound I-318]: the pIC50 is 4.10 to 4.70.

On to `CC1(C)CC(NC(=O)c2ccc(Oc3ccncc3)cc2)CC(C)(C)N1` [Compound I-319], for which the pIC50 is less than 4.10.

As for `COc1ncccc1-c1ccccc1Oc1ccc(C(=O)NC2CC(C)(C)NC(C)(C)C2)cc1Cl` [Compound I-321], the pIC50 is less than 4.10.

On to `COC(=O)c1cncc(-c2ccccc2Oc2ccc(C(=O)NC3CC(C)(C)NC(C)(C)C3)cc2Cl)c1` [Compound I-322], for which the pIC50 was greater than 5.30.

`Cc1ccc(-c2cccc(Oc3ccc(C(=O)NC4CC(C)(C)NC(C)(C)C4)cc3Cl)c2C#N)s1` [Compound I-323]: the pIC50 is greater than 5.30.

With `Cc1ccccc1Oc1ccc(C(=O)NC2CC(C)(C)NC(C)(C)C2)cc1Cl` [Compound I-325], the pIC50 is 4.70 to 5.30.

For the compound `CC1(C)CC(NC(=O)c2ccc(-n3ccc4ccccc43)c(Cl)c2)CC(C)(C)N1` [Compound I-328], the pIC50 was 4.10 to 4.70.
